Reference: US8034940B2, “Modulators of glucocorticoid receptor, AP-1, and/or NF-κB activity and use thereof” (Bristol-Myers Squibb Company, priority 2006, dated 2011)
Where two headings read alike, the source gives them in different places.

System: AP-1 induced transcriptional activity
Assay: Cellular Transrepressional Assay (AP-1 luciferase reporter, PMA-activated A549 cells)
Assay type: cell-based
Conditions: for Emax: A549, 7 h, read-out: AP-1 Max % inh (Cellular Transrepression Assay); for Emax / AP-1 Max % inh (Cellular Transrepression Assay): maximum inhibition
Method in brief: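 A549 cells stably carrying a 7× AP-1–luciferase reporter were stimulated with 10 ng/ml PMA with or without compound (0.1 nM–40 μM) for 7 h. Luminescence read 10 min after luciferase reagent; EC50 fitted from % decrease versus PMA-only signal.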

[1] = Homo sapiens, Cellular Transrepression Assay
[2] = Homo sapiens, A549, Cellular Transrepression Assay

CC(C)(C(=O)Nc1nncs1)[C@H]1c2ccccc2Oc2nc(-c3ccc(C(=O)N4CCC(F)(F)C4)cc3)ccc21 [Example 314]
Emax [1]: 69.8%
EC50 [2]: 18 nM

CC(C)(C(=O)Nc1nncs1)[C@H]1c2ccccc2Oc2nc(-c3ccc(C(=O)N4CC(O)C4)cc3)ccc21 [Example 315]
Emax [1]: 40.9%
EC50 [2]: 750 nM

CC(C)(C(=O)Nc1nncs1)[C@H]1c2ccccc2Oc2nc(-c3ccc(C(=O)N4CCCC4C#N)cc3)ccc21 (stereo partly drawn) [Example 316]
Emax [1]: 35.9%
EC50 [2]: 60.9 nM

CC(C)C1CCCN1C(=O)c1ccc(-c2ccc3c(n2)Oc2ccccc2[C@@H]3C(C)(C)C(=O)Nc2nncs2)cc1 (stereo partly drawn) [Example 318]
Emax [1]: 27.6%
EC50 [2]: 63.1 nM

CC(=O)N1CCN(C(=O)c2ccc(-c3ccc4c(n3)Oc3ccccc3[C@@H]4C(C)(C)C(=O)Nc3nncs3)cc2F)CC1 [Example 324]
Emax [1]: 54.9%
EC50 [2]: 431 nM

COC[C@H]1CCCN1C(=O)c1ccc(-c2ccc3c(n2)Oc2ccccc2[C@@H]3C(C)(C)C(=O)Nc2nncs2)cc1F [Example 325]
Emax [1]: 56.1%
EC50 [2]: 90.2 nM

CC(C)(C(=O)Nc1nncs1)[C@H]1c2ccccc2Oc2nc(-c3ccc(C(=O)N4CCOCC4)c(F)c3)ccc21 [Example 327]
EC50 (Cellular Transrepression Assay): 8.93 nM
AP-1 Max % inh (Cellular Transrepression Assay) (Cellular Transrepression Assay): 59.45%

CC(C)(C(=O)Nc1nncs1)[C@H]1c2ccccc2Oc2nc(-c3ccc(C(=O)N4CCOCC4)c(Cl)c3)ccc21 [Example 328]
EC50 (Cellular Transrepression Assay): 18.6 nM
AP-1 Max % inh (Cellular Transrepression Assay) (Cellular Transrepression Assay): 66.06%

CC(C)N(C)C(=O)c1ccc(-c2ccc3c(n2)Oc2ccccc2[C@@H]3C(C)(C)C(=O)Nc2nncs2)cc1F [Example 329]
EC50 (Cellular Transrepression Assay): 583 nM
AP-1 Max % inh (Cellular Transrepression Assay) (Cellular Transrepression Assay): 40.81%

COC[C@H]1CCCN1C(=O)c1ccc(-c2ccc3c(n2)Oc2ccccc2[C@@H]3C(C)(C)C(=O)Nc2nncs2)cc1Cl [Example 330]
Emax [1]: 60.6%
EC50 [2]: 21.9 nM

CC(C)(C(=O)Nc1nncs1)[C@H]1c2ccccc2Oc2nc(-c3ccc(C(=O)N4CCC[C@@H]4CO)cc3)ccc21 [Example 331]
Emax [1]: 36.3%
EC50 [2]: 33.7 nM

CC(C)(C(=O)Nc1nncs1)[C@H]1c2ccccc2Oc2nc(-c3ccc(C(=O)N4CCCC4)c(F)c3)ccc21 [Example 333]
EC50 (Cellular Transrepression Assay): 24.7 nM
AP-1 Max % inh (Cellular Transrepression Assay) (Cellular Transrepression Assay): 52.71%

CC(C)(C(=O)Nc1nncs1)[C@H]1c2ccccc2Oc2nc(-c3ccc(C(=O)N4CCC(F)(F)CC4)c(F)c3)ccc21 [Example 334]
Emax [1]: 36.2%
EC50 [2]: 3.36 nM

CC(C)(C(=O)Nc1nncs1)[C@H]1c2ccccc2Oc2nc(-c3ccc(C(=O)N4CCC(F)(F)C4)c(F)c3)ccc21 [Example 335]
Emax [1]: 56%
EC50 [2]: 37.9 nM

CCN(C)C(=O)c1ccc(-c2ccc3c(n2)Oc2ccccc2[C@@H]3C(C)(C)C(=O)Nc2nncs2)cc1F [Example 336]
EC50 (Cellular Transrepression Assay): 20.4 nM
AP-1 Max % inh (Cellular Transrepression Assay) (Cellular Transrepression Assay): 55.80%

CC(C)(C(=O)Nc1nncs1)[C@H]1c2ccccc2Oc2nc(-c3ccc(C(=O)N4CC(F)(F)C(F)(F)C4)c(F)c3)ccc21 [Example 337]
Emax [1]: 51.5%
EC50 [2]: 103 nM

CC(C)(C(=O)Nc1nncs1)[C@H]1c2ccccc2Oc2nc(-c3ccc(C(=O)N4CCC(F)(F)CC4)c(Cl)c3)ccc21 [Example 339]
Emax [1]: 38.4%
EC50 [2]: 185 nM

CC(C)(C(=O)Nc1nncs1)[C@H]1c2ccccc2Oc2nc(-c3ccc(C(=O)N4CCC(F)(F)C4)c(Cl)c3)ccc21 [Example 340]
Emax [1]: 67.6%
EC50 [2]: 54.8 nM

CC(C)(C(=O)Nc1nncs1)[C@H]1c2ccccc2Oc2nc(-c3ccc(C(=O)N4CCCC4)c(Cl)c3)ccc21 [Example 341]
EC50 (Cellular Transrepression Assay): 14.8 nM
AP-1 Max % inh (Cellular Transrepression Assay) (Cellular Transrepression Assay): 50.27%

CCCN(C)C(=O)c1ccc(-c2ccc3c(n2)Oc2ccccc2[C@@H]3C(C)(C)C(=O)Nc2nncs2)cc1F [Example 343]
EC50 (Cellular Transrepression Assay): 18.4 nM
AP-1 Max % inh (Cellular Transrepression Assay) (Cellular Transrepression Assay): 29.68%

CC(C)(C(=O)Nc1nncs1)[C@H]1c2ccccc2Oc2nc(-c3ccc(C(=O)N4CCC[C@@H]4CO)c(F)c3)ccc21 [Example 344]
Emax [1]: 44.5%
EC50 [2]: 39.6 nM

CCN(C)C(=O)c1ccc(-c2ccc3c(n2)Oc2ccccc2[C@@H]3C(C)(C)C(=O)Nc2nncs2)cc1Cl [Example 345]
EC50 (Cellular Transrepression Assay): 124 nM
AP-1 Max % inh (Cellular Transrepression Assay) (Cellular Transrepression Assay): 54.25%

CNC(=O)c1ccc(-c2ccc3c(n2)Oc2ccccc2[C@@H]3C(C)(C)C(=O)Nc2nncs2)cc1 [Example 348]
Emax [1]: 34.4%
EC50 [2]: 300 nM

CC(C)(C(=O)Nc1nncs1)[C@H]1c2ccccc2Oc2nc(-c3ccc(C(=O)NC4CC4)cc3)ccc21 [Example 350]
Emax [1]: 45.1%
EC50 [2]: 520 nM

Cc1csc(NC(=O)C(C)(C)C2c3ccccc3Oc3nc(-c4ccc(C(=O)N(C)C)cc4)ccc32)n1 (stereo not drawn) [Example 363]
EC50 (Cellular Transrepression Assay): 247 nM
AP-1 Max % inh (Cellular Transrepression Assay) (Cellular Transrepression Assay): 47.74%

Cc1cnc(NC(=O)C(C)(C)C2c3ccccc3Oc3nc(-c4ccc(C(=O)N(C)C)cc4)ccc32)s1 (stereo not drawn) [Example 364]
EC50 (Cellular Transrepression Assay): 244 nM
AP-1 Max % inh (Cellular Transrepression Assay) (Cellular Transrepression Assay): 58.90%

CC(C)(C(=O)Nc1nncs1)[C@H]1c2ccccc2Oc2cc(OC(=O)NCc3ccccc3)ccc21 [Example 369, (s)-9-(1-(1,3,4-thiadiazole-2ylamino)-2-methyl-1-oxopropan-2-yl)-9H-xanthen-3-yl benzylcarbamate]
Emax [1]: 55.5%
EC50 [2]: 33 nM

CCCCNC(=O)Oc1ccc2c(c1)Oc1ccccc1[C@@H]2C(C)(C)C(=O)Nc1nncs1 [Example 370]
Emax [1]: 57.6%
EC50 [2]: 34.2 nM

CCNC(=O)Oc1ccc2c(c1)Oc1ccccc1[C@@H]2C(C)(C)C(=O)Nc1nncs1 [Example 371]
Emax [1]: 48.7%
EC50 [2]: 22.3 nM

CC(C)(C(=O)Nc1nncs1)[C@H]1c2ccccc2Oc2cc(OC(=O)NCc3ccco3)ccc21 [Example 372]
Emax [1]: 52.4%
EC50 [2]: 28.3 nM

CC(C)(C(=O)Nc1nncs1)C1c2ccccc2Oc2cc(OC(=O)NC3CCCCC3)ccc21 (stereo not drawn) [Example 373]
EC50 (Cellular Transrepression Assay): 32.8 nM
Emax [1]: 45.6%

CCCCCCCCNC(=O)Oc1ccc2c(c1)Oc1ccccc1C2C(C)(C)C(=O)Nc1nncs1 (stereo not drawn) [Example 374]
Emax [1]: 50.9%
EC50 [2]: 30.9 nM

CC(C)(C(=O)Nc1nncs1)C1c2ccccc2Oc2cc(OC(=O)NCCc3ccccc3)ccc21 (stereo not drawn) [Example 375]
EC50 (Cellular Transrepression Assay): 82.8 nM
AP-1 Max % inh (Cellular Transrepression Assay) (Cellular Transrepression Assay): 51.24%

CC(C)(C(=O)Nc1nncs1)C1c2ccccc2Oc2cc(OC(=O)NCCc3cccs3)ccc21 (stereo not drawn) [Example 376]
EC50 (Cellular Transrepression Assay): 34.4 nM
AP-1 Max % inh (Cellular Transrepression Assay) (Cellular Transrepression Assay): 45.09%

CC(C)(C(=O)Nc1nncs1)C1c2ccccc2Oc2cc(OC(=O)NCc3ccc(F)cc3)ccc21 (stereo not drawn) [Example 377]
EC50 (Cellular Transrepression Assay): 32.7 nM
AP-1 Max % inh (Cellular Transrepression Assay) (Cellular Transrepression Assay): 49.10%

CC(C)(C(=O)Nc1nncs1)C1c2ccccc2Oc2cc(OC(=O)NCc3ccc(Cl)c(Cl)c3)ccc21 (stereo not drawn) [Example 379]
EC50 (Cellular Transrepression Assay): 74 nM
AP-1 Max % inh (Cellular Transrepression Assay) (Cellular Transrepression Assay): 51.21%

CC(C)(C(=O)Nc1nncs1)C1c2ccccc2Oc2cc(OC(=O)NCCCc3ccccc3)ccc21 (stereo not drawn) [Example 380]
EC50 (Cellular Transrepression Assay): 101 nM
AP-1 Max % inh (Cellular Transrepression Assay) (Cellular Transrepression Assay): 53.58%

CC(C)(C(=O)Nc1nncs1)C1c2ccccc2Oc2cc(OC(=O)NCCc3ccc(F)cc3)ccc21 (stereo not drawn) [Example 381]
EC50 (Cellular Transrepression Assay): 45.2 nM
AP-1 Max % inh (Cellular Transrepression Assay) (Cellular Transrepression Assay): 52.00%

CC(C)(C)NC(=O)Oc1ccc2c(c1)Oc1ccccc1C2C(C)(C)C(=O)Nc1nncs1 (stereo not drawn) [Example 382]
Emax [1]: 47.2%
EC50 [2]: 206 nM

CCC(C)NC(=O)Oc1ccc2c(c1)Oc1ccccc1C2C(C)(C)C(=O)Nc1nncs1 (stereo not drawn) [Example 383]
EC50 (Cellular Transrepression Assay): 46.3 nM
AP-1 Max % inh (Cellular Transrepression Assay) (Cellular Transrepression Assay): 41.78%

COc1ccc(CCNC(=O)Oc2ccc3c(c2)Oc2ccccc2C3C(C)(C)C(=O)Nc2nncs2)cc1 (stereo not drawn) [Example 384]
EC50 (Cellular Transrepression Assay): 61.9 nM
AP-1 Max % inh (Cellular Transrepression Assay) (Cellular Transrepression Assay): 42.30%

CC(C)(C(=O)Nc1nncs1)C1c2ccccc2Oc2cc(OC(=O)NC3CCCCC3)ccc21 (stereo not drawn) [Example 385]
EC50 (Cellular Transrepression Assay): 96.5 nM
AP-1 Max % inh (Cellular Transrepression Assay) (Cellular Transrepression Assay): 28.99%

CNC(=O)Oc1ccc2c(c1)Oc1ccccc1C2C(C)(C)C(=O)Nc1nncs1 (stereo not drawn) [Example 386]
Emax [1]: 34.3%
EC50 (Homo sapiens, A549, read-out: AP-1 EC50, nM (Cellular Transrepression Assay)): 89 nM

CCNC(=O)Oc1ccc2c(c1)Oc1ccccc1C2C(C)(C)C(=O)Nc1nncs1 (stereo not drawn) [Example 387]
Emax [1]: 52.5%
EC50 [2]: 82 nM

CCCCNC(=O)Oc1ccc2c(c1)Oc1ccccc1C2C(C)(C)C(=O)Nc1nncs1 (stereo not drawn) [Example 388]
Emax [1]: 57.6%
EC50 [2]: 34.2 nM

CC(C)(C(=O)Nc1nncs1)C1c2ccccc2Oc2cc(OC(=O)NCc3ccccc3)ccc21 (stereo not drawn) [Example 389]
EC50 (Cellular Transrepression Assay): 50.5 nM
AP-1 Max % inh (Cellular Transrepression Assay) (Cellular Transrepression Assay): 55.20%

COc1ccc(NC(=O)Oc2ccc3c(c2)Oc2ccccc2C3C(C)(C)C(=O)Nc2nncs2)cc1 (stereo not drawn) [Example 390]
EC50 (Cellular Transrepression Assay): 42.8 nM
AP-1 Max % inh (Cellular Transrepression Assay) (Cellular Transrepression Assay): 56.63%

COc1ccc(CNC(=O)Oc2ccc3c(c2)Oc2ccccc2C3C(C)(C)C(=O)Nc2nncs2)cc1 (stereo not drawn) [Example 391]
EC50 (Cellular Transrepression Assay): 52 nM
AP-1 Max % inh (Cellular Transrepression Assay) (Cellular Transrepression Assay): 44.08%

CC(C)(C(=O)Nc1nncs1)C1c2ccccc2Oc2cc(OC(=O)NCC3CCCCC3)ccc21 (stereo not drawn) [Example 392]
EC50 (Cellular Transrepression Assay): 49.7 nM
AP-1 Max % inh (Cellular Transrepression Assay) (Cellular Transrepression Assay): 44.82%

CC(C)(C(=O)Nc1nncs1)C1c2ccccc2Oc2cc(OC(=O)NCc3ccco3)ccc21 (stereo not drawn) [Example 393]
EC50 (Cellular Transrepression Assay): 53.4 nM
AP-1 Max % inh (Cellular Transrepression Assay) (Cellular Transrepression Assay): 43.80%

CC(C)(C(=O)NC#N)[C@H]1c2ccccc2Oc2nc(-c3ccc(C(=O)N4CCCC4)c(F)c3)ccc21 [Example 398]
Emax [1]: 50%
EC50 [2]: 480 nM

CC(C)(O)c1ccc(-c2ccc3c(n2)Oc2ccccc2[C@@H]3C(C)(C)C(=O)NC#N)cc1 [Example 399]
Emax [1]: 69.3%
EC50 [2]: 333 nM

CC(C)(C(=O)Nc1nncs1)[C@H]1c2ccccc2Oc2nc(NC(=O)NCCN3CCCC3)ccc21 [Example 401]
Emax [1]: 35.1%
EC50 [2]: 778 nM

CC(C)(O)c1ccc(-c2ccc3c(n2)Oc2ccccc2[C@@H]3C(C)(C)C(=O)Nc2nncs2)cc1 [Example 404]
Emax [1]: 70.6%
EC50 [2]: 22.5 nM
